Source: patent US7456154B2 (priority 2001, dated 2008)

What was measured:
AChE = experiment: Plasma cholinesterase activities in monkeys (Ellman assay, acetylthiocholine hydrolysis); type: in vivo, Cynomolgus monkey
Description: In the 12 hr following the second day administration of hEN101, monkey plasma samples were collected and stored. Plasma cholinesterase activities were measured by spectrophotometry assessing the rate of hydrolysis of acetylthiocholine (measured by the Ellman assay, which quantifies the hydrolysis of acetylthiocholine) [Ellman, G. L., et al. (1961). Biochem. Pharmacol. 7, 88-95], in the absence or presence of iso-OMPA (a selective butyrylcholinesterase, BChE, inhibitor). […] When measured in the presence of 1×10^−5M iso-OMPA, AChE activity increased within the 5 hr post-injection.

AChE-S mRNA = experiment: In situ hybridization of AChE-S mRNA in monkey spinal cord; type: in vivo, Cynomolgus monkey; details: oral 0.15 and 0.50, i.v. 0.50 μg/g/day, 7 days
Description: In situ hybridization: Tissues were fixed in 4% paraformaldehyde and cut into 7 μm paraffin embedded sections. Spinal cord sections were deparaffinized, rehydrated using serial ethanol dilutions and permeabilized with proteinase K (10 μg/ml at room temp.). Slides were exposed to 5′ biotinylated, fully 2′-oxymethylated AChE-R or AChE-S-specific 50-mer cRNA probes complementary to human ACHE pseudo-intron 4 or exon 6, respectively [Grisaru et al. (2001) id ibid.]. Hybridization was performed overnight at 52° C. in hybridization mixture containing 10 μg/ml probe, 50 μg/ml yeast tRNA, 50 μg/ml heparin and 50% formamide in 375 mM Na chloride, 37.5 mM Na citrate, pH 4.5. For monkey sections, the probe was constructed according to the human AChE-R sequence; for rat sections, according to the mouse sequence. Slides were washed to remove non-hybridized probe, blocked with 1% skim milk containing 0.01% Tween-20 and 2 mM levamisole, an alkaline phosphatase inhibitor used to suppress non-specific staining and incubate with streptavidin-alkaline phosphatase (Amersham Pharmacia). Fast Red™ substrate (Roche Diagnostics) was used for detection. DAPI staining (Sigma Chemical Co., St. Louis, Mo., USA) served to visualize nuclei. Microscope images were analyzed with Image Pro Plus 4.0 (Media Cybernetics) software. […]

[1] = Stability of hEN101 in human plasma and blood; type: in vitro ADME
Description: Exposure at room temperature to Li-heparin-treated blood caused a decay of hEN101 with a half-life in the order of 30 min.

AChE-R mRNA = experiment: In situ hybridization of AChE-R mRNA in rat spinal cord neurons; type: in vivo; details: 500 μg/kg i.v. daily, 7 days
Description: FIG. 17 Effect of rEN101 on AChE-R mRNA in rat spinal cord neurons. The presence of AChE-R mRNA-positive cells was determined in spinal cord section of rats that had been treated for 7 days with rEN101 (500 μg/kg. i.v., daily).
In situ hybridization: Tissues were fixed in 4% paraformaldehyde and cut into 7 μm paraffin embedded sections. Spinal cord sections were deparaffinized, rehydrated using serial ethanol dilutions and permeabilized with proteinase K (10 μg/ml at room temp.). Slides were exposed to 5′ biotinylated, fully 2′-oxymethylated AChE-R or AChE-S-specific 50-mer cRNA probes complementary to human ACHE pseudo-intron 4 or exon 6, respectively [Grisaru et al. (2001) id ibid.]. Hybridization was performed overnight at 52° C. in hybridization mixture containing 10 μg/ml probe, 50 μg/ml yeast tRNA, 50 μg/ml heparin and 50% formamide in 375 mM Na chloride, 37.5 mM Na citrate, pH 4.5. For monkey sections, the probe was constructed according to the human AChE-R sequence; for rat sections, according to the mouse sequence. Slides were washed to remove non-hybridized probe, blocked with 1% skim milk containing 0.01% Tween-20 and 2 mM levamisole, an alkaline phosphatase inhibitor used to suppress non-specific staining and incubate with streptavidin-alkaline phosphatase (Amersham Pharmacia). […] Microscope images were analyzed with Image Pro Plus 4.0 (Media Cybernetics) software.

AChE-R = experiment: Immunohistochemical staining of AChE-R in rat muscle; type: in vivo; details: healthy and EAMG rats, 24 h after single i.v. injection of 250 μg/Kg
Description: Immunocytochemistry: Muscle sections were deparaffinized with xylene and were re-hydrated in graded ethanol solutions (100%, 90%, 70%) and PBS. Heat-induced antigen retrieval was performed by microwave treatment (850 W for rapid boil following 10 min in reduced intensity) in 500 ml of 0.01M citrate buffer pH 6.0. Slides were cooled to room temperature and rinsed in double distilled water. Non-specific binding was blocked by 4% nominal donkey serum in PBS with 0.3% Triton X-100 and 0.05% Tween 20 (1 hr at room temperature). Biotinylated primary antibody was diluted (1:100 and 1:30 for rabbit anti-AChE-R [Sternfeld et al. (2000) id ibid] and goat anti-nAChR, respectively) in the same buffer and slides were incubated 1 hr at room temperature following overnight incubation at 4° C. Sections were rinsed and incubated with alkaline phosphatase-conjugated secondary antibody, diluted in the same blocking buffer 1 hr at room temperature and then overnight at 4° C. Detection was with the alkaline phosphatase substrate Fast Red (Roche Diagnostics, Mannheim, Germany). Slides were simultaneously transferred to a stop solution (25 mM EDTA, 0.05% Triton X-100, 1 mM levamisole in PBS, pH 7.2), rinsed in PBS and cover-slipped with Immunomount (Shandon). […]

Substance	Total plasma cholinesterase activity (largely serum BChE) (AChE; 12 hr following second day administration, without iso-OMPA)	Post-injection increase of plasma AChE activity (AChE; in presence of 1×10^−5M iso-OMPA, 500 μg/kg vs 150 μg/kg, more effective i.v.)	AChE-S mRNA in spinal cord (AChE-S mRNA)	Stability, remaining concentration ([1]; 2 h in human plasma with EDTA at room temperature)	Half-life of decay ([1]; Li-heparin-treated blood at room temperature) [min]	Stability, remaining concentration ([1]; after 1 month at −20° C.)	Stability, remaining concentration ([1]; following three freeze/thawing cycles)	AChE-R mRNA in rat spinal cord neurons (AChE-R mRNA)	AChE-R immunohistochemical staining in muscle (AChE-R)
5′-CTGCCACGTTCTCCTGCACC-3′ [hEN101]	generally unchanged	effectively suppressed or attenuated	no apparent reduction	> 90 % of original concentration	~30	> 90 % of original concentration	> 90 % of original concentration		
5′-CTGCGATATTTTCTTGTACC-3′ (chemistry not given here) [rEN101]								does not suppress AChE-R mRNA	significantly reduced
